Experimental data taken from patent US20230167132A1, “FORMS AND COMPOSITIONS OF INHIBITORS OF PLASMA KALLIKREIN” (Takeda Pharmaceutical Company Limited, priority 2020, published 2023).
Values joined by “and” are separate entries in the source; they are usually repeats but may differ in a detail not shown here. Equal values may be shown once.

Legend:
Assay type in all cases: physicochemical
[1] = Storage for one week at 40° C./75% RH and 25° C./97% RH, XRPD; conditions: for stability under storage: summary of scaled-up solid forms, conditions not restated
[2] = Gravimetric vapour sorption (GVS) analysis; conditions: for XRPD post GVS analysis: change of solid form after GVS; for GVS mass increase: between 0 and 90% RH; for GVS hygroscopicity: classification in words
[3] = Intrinsic Dissolution Rate (IDR), Sirius inForm; conditions: for IDR Sector 1 average (pH 2.0) / IDR Sector 1 pH 2.0: pH 2.0, 37° C.; for IDR Sector 1 pH 2.0: individual runs; for sector 1 IDR compared to free base form Compound 1 Form 1 / other forms: pH 2.0, comparison in words; for XRPD Analysis Post Dissolution: solid form of disc after IDR analysis
Experimental: About 40 mg of the sample was compressed in a 6 mm disc recess, under 100 kg for 2 minutes, with greaseproof paper on the compression base, to form nondisintegrating discs. The discs were then plugged with a bung so that only one surface was exposed to the media during analysis and transferred to the Sirius inForm dissolution apparatus. Analysis was performed at 37° C. in 40 mL media (36 mL ISA water, 4 mL 0.1 M Acetate Phosphate Buffer). Dissolution data were collected over 4 pH sectors (pH 2.0, 5.5, 6.5, and 7.4) for a total of 2 hours—30 minutes per sector, with UV spectra collected every 30 seconds. A stir speed of 225 rpm was used with a 10 mm path length probe. The IDR was calculated based on the surface area of the 3/6/8 mm disc recess used (28.3 mm2 surface area). XRPD analysis was performed on all samples, both after compression of the material into the disc recess, and post dissolution analysis to observe any change in form. XRPD diffractograms were collected on the Bruker C2.

[4] = one week (7 days), scaled-up / characterised material
[5] = one week, material isolated from salt/cocrystal screening experiments
[6] = one week (7 days), scaled-up / characterised material, listed as Form 2

For `O=C(NCc1ncn2ccc(Cl)c(F)c12)c1cn(Cc2cn3cc(C4CC4)ccc3n2)nn1` [Amorphous form of Compound 1, N-((7-chloro-8-fluoroimidazo[1,5-a]pyridin-1-yl)methyl)-1-((6-cyclopropylimidazo[1,2-a]pyridin-2-yl)methyl)-1H-1,2,3-triazole-4-carboxamide], the “form conversion upon heating” value ([1]; heating to 150° C.) was “convert to Form 1”, the “Storage 25° C./97% RH, XRPD” value [1, 4] was “convert to Form 1” and the “Storage 40° C./75% RH, XRPD” value [1, 4] was “convert to Form 1”. The “XRPD post GVS analysis” value [2] was “convert to Form 1”.

In the case of `O=C(NCc1ncn2ccc(Cl)c(F)c12)c1cn(Cc2cn3cc(C4CC4)ccc3n2)nn1` [Compound 6], the stability under storage [1] is reported as “stable under storage”.

With `CS(=O)(=O)O.O=C(NCc1ncn2ccc(Cl)c(F)c12)c1cn(Cc2cn3cc(C4CC4)ccc3n2)nn1` [Mesylate salt—Pattern 3] the “Storage 40° C./75% RH, XRPD” value [1, 5] was “unchanged”.

For `O=C(NCc1ncn2ccc(Cl)c(F)c12)c1cn(Cc2cn3cc(C4CC4)ccc3n2)nn1.O=P(O)(O)O` [Compound 5], the “Storage 25° C./97% RH, XRPD” value [1, 4] was “unchanged by XRPD”, the “Storage 40° C./75% RH, XRPD” value [1, 4] was “unchanged by XRPD” and the “Storage 40° C./75% RH, XRPD” value [1, 5] was “unchanged”. For the same molecule, the stability under storage [1] was “stable under storage”, the “IDR Sector 1 average (pH 2.0)” value [3] was 404.1 μg/min/cm^2 and the “IDR Sector 1 pH 2.0” value ([3]; listed as Phosphate Pattern 1) was 364.7 μg/min/cm^2 and 443.4 μg/min/cm^2. For the same molecule, the “sector 1 IDR compared to free base form Compound 1 Form 1 / other forms” value [3] was “increased sector 1 IDR”, the “XRPD Analysis Post Dissolution” value ([3]; listed as Phosphate Pattern 1) was “Partial conversion to Compound 1” and the GVS mass increase [2] was 1.2%. For the same molecule, the “XRPD post GVS analysis” value [2] was “no observed change”, the GVS hygroscopicity ([2]; listed as Compound 5 Pattern 1) was “slightly hygroscopic” and the GVS hygroscopicity ([2]; listed as phosphate) was “reduced hygroscopicity”.

For `CS(=O)(=O)O.O=C(NCc1ncn2ccc(Cl)c(F)c12)c1cn(Cc2cn3cc(C4CC4)ccc3n2)nn1` [Mesylate salt—Pattern 1], the “Storage 40° C./75% RH, XRPD” value [1, 5] was “changes to its XRPD pattern with peaks corresponding to Compound 1 Form 1 being present”.

With `O=C(NCc1ncn2ccc(Cl)c(F)c12)c1cn(Cc2cn3cc(C4CC4)ccc3n2)nn1.O=C(O)CCC(=O)O` [Compound 4] the “Storage 25° C./97% RH, XRPD” value [1, 4] was “unchanged by XRPD”, the “Storage 40° C./75% RH, XRPD” value [1, 4] was “unchanged by XRPD” and the “Storage 40° C./75% RH, XRPD” value [1, 5] was “unchanged”. For the same molecule, the stability under storage [1] was “stable under storage”, the “IDR Sector 1 average (pH 2.0)” value [3] was 255.5 μg/min/cm^2 and the “IDR Sector 1 pH 2.0” value ([3]; listed as Succinate Pattern 1) was 270.8 μg/min/cm^2 and 240.1 μg/min/cm^2. For the same molecule, the “sector 1 IDR compared to free base form Compound 1 Form 1 / other forms” value [3] was “increased sector 1 IDR”, the “XRPD Analysis Post Dissolution” value ([3]; listed as Compound 4 Pattern 1) was “additional peaks observed in XRPD” and the “XRPD Analysis Post Dissolution” value ([3]; listed as Succinate Pattern 1) was “Additional peaks observed”. The GVS mass increase [2] was 0.16%, the “XRPD post GVS analysis” value [2] was “no observed change” and the GVS hygroscopicity ([2]; listed as Compound 4 Pattern 1) was “non-hygroscopic”. The GVS hygroscopicity ([2]; listed as succinate) was “reduced hygroscopicity”.

In the case of `O=C(NCc1ncn2ccc(Cl)c(F)c12)c1cn(Cc2cn3cc(C4CC4)ccc3n2)nn1` [Compound 1 Form 2, N-((7-chloro-8-fluoroimidazo[1,5-a]pyridin-1-yl)methyl)-1-((6-cyclopropylimidazo[1,2-a]pyridin-2-yl)methyl)-1H-1,2,3-triazole-4-carboxamide], the “Storage 25° C./97% RH, XRPD” value [1, 4] is reported as “Mixture of Compound 1 - Form 1, Compound 1 -”, the “Storage 40° C./75% RH, XRPD” value [1, 4] is reported as “Free base, Compound 1 - Form 1” and the “Storage 25° C./97% RH, XRPD” value [1, 6] is reported as “Peaks corresponding to a suspected hydrated phase”. For the same molecule, the “Storage 40° C./75% RH, XRPD” value [1, 6] was “convert to Form 1”, the “IDR Sector 1 average (pH 2.0)” value [3] was 290.8 μg/min/cm^2 and the “XRPD Analysis Post Dissolution” value [3] was “Conversion to Compound 1 - Form 1”. For the same molecule, the “GVS increase in mass” value ([2]; between 80 and 90% RH) was 4%, the “XRPD post GVS analysis” value [2] was “decrease. Mixture of Freebase Patterns 2 & 3” and the “XRPD post GVS analysis” value ([2]; listed as Form 2) was “convert to Form 1”. For the same molecule, the GVS hygroscopicity [2] was “Hygroscopic”.

With `O=C(NCc1ncn2ccc(Cl)c(F)c12)c1cn(Cc2cn3cc(C4CC4)ccc3n2)nn1` [Compound 11] the “Storage 40° C./75% RH, XRPD” value [1, 5] was “unchanged by XRPD”.

With `CS(=O)(=O)O.O=C(NCc1ncn2ccc(Cl)c(F)c12)c1cn(Cc2cn3cc(C4CC4)ccc3n2)nn1` [Mesylate salt—Pattern 2] the “Storage 40° C./75% RH, XRPD” value [1, 5] was “unchanged”.

In the case of `O=C(NCc1ncn2ccc(Cl)c(F)c12)c1cn(Cc2cn3cc(C4CC4)ccc3n2)nn1.O=C(O)C(O)C(O)C(=O)O` [Compound 7], the “Storage 25° C./97% RH, XRPD” value [1, 4] is reported as “unchanged by XRPD”, the “Storage 40° C./75% RH, XRPD” value [1, 4] is reported as “unchanged by XRPD” and the “Storage 40° C./75% RH, XRPD” value [1, 5] is reported as “unchanged”. For the same molecule, the “IDR Sector 1 average (pH 2.0)” value [3] was 656.4 μg/min/cm^2, the “IDR Sector 1 pH 2.0” value ([3]; listed as L-Tartrate Pattern 1) was 647.0 μg/min/cm^2 and 665.7 μg/min/cm^2 and the “XRPD Analysis Post Dissolution” value [3] was “poorly crystalline post analysis”. For the same molecule, the GVS mass increase [2] was 3.4%, the “XRPD post GVS analysis” value [2] was “No observed change” and the GVS hygroscopicity ([2]; listed as Compound 7 Pattern 1) was “hygroscopic”. The GVS hygroscopicity ([2]; listed as L-Tartrate Pattern 1) was “Poorly crystalline, hygroscopic” and the GVS hygroscopicity ([2]; listed as L-tartrate) was “hygroscopic”.

With `O=C(NCc1ncn2ccc(Cl)c(F)c12)c1cn(Cc2cn3cc(C4CC4)ccc3n2)nn1.O=C(O)/C=C/C(=O)O` [Compound 9] the “Storage 25° C./97% RH, XRPD” value [1, 4] was “unchanged by XRPD”, the “Storage 40° C./75% RH, XRPD” value [1, 4] was “unchanged by XRPD” and the “Storage 40° C./75% RH, XRPD” value [1, 5] was “unchanged”. The stability under storage [1] was “stable under storage”, the “IDR Sector 1 average (pH 2.0)” value [3] was 78.3 μg/min/cm^2 and the “IDR Sector 1 pH 2.0” value ([3]; listed as Fumarate Pattern 1) was 76.8 μg/min/cm^2 and 79.8 μg/min/cm^2. The “XRPD Analysis Post Dissolution” value ([3]; listed as Compound 9 Pattern 1) was “Additional peaks observed in XRPD”, the “XRPD Analysis Post Dissolution” value ([3]; listed as Fumarate Pattern 1) was “Additional peaks observed” and the GVS mass increase [2] was 0.6%. The “XRPD post GVS analysis” value [2] was “no observed change”, the GVS hygroscopicity ([2]; listed as Compound 9 Pattern 1) was “slightly hygroscopic” and the GVS hygroscopicity ([2]; listed as fumarate) was “reduced hygroscopicity”.

For `O=C(NCc1ncn2ccc(Cl)c(F)c12)c1cn(Cc2cn3cc(C4CC4)ccc3n2)nn1` [Compound 1 Form 3, N-((7-chloro-8-fluoroimidazo[1,5-a]pyridin-1-yl)methyl)-1-((6-cyclopropylimidazo[1,2-a]pyridin-2-yl)methyl)-1H-1,2,3-triazole-4-carboxamide], the “Storage 25° C./97% RH, XRPD” value [1, 4] was “Unchanged by XRPD”, the “Storage 40° C./75% RH, XRPD” value [1, 4] was “Unchanged by XRPD” and the GVS mass increase [2] was 0.5%. For the same molecule, the “XRPD post GVS analysis” value [2] was “between 0 and 90% RH. Unchanged by XRPD post” and the GVS hygroscopicity [2] was “Slightly hygroscopic”.

With `O=C(NCc1ncn2ccc(Cl)c(F)c12)c1cn(Cc2cn3cc(C4CC4)ccc3n2)nn1.O=C(O)C[C@H](O)C(=O)O` [Compound 3] the “Storage 25° C./97% RH, XRPD” value [1, 4] was “unchanged by XRPD”, the “Storage 40° C./75% RH, XRPD” value [1, 4] was “unchanged by XRPD” and the “Storage 40° C./75% RH, XRPD” value [1, 5] was “Slight changes”. The stability under storage [1] was “stable under storage”, the “IDR Sector 1 average (pH 2.0)” value [3] was 1791 μg/min/cm^2 and the “IDR Sector 1 pH 2.0” value ([3]; listed as L-malate Pattern 1) was 1569 μg/min/cm^2 and 2013 μg/min/cm^2. For the same molecule, the “sector 1 IDR compared to free base form Compound 1 Form 1 / other forms” value ([3]; listed as Compound 3 Form 1) was “highest IDR”, the “sector 1 IDR compared to free base form Compound 1 Form 1 / other forms” value ([3]; listed as Compound 3 Pattern 1) was “increased sector 1 IDR” and the “XRPD Analysis Post Dissolution” value ([3]; listed as Compound 3 Pattern 1) was “additional peaks observed in XRPD”. For the same molecule, the “XRPD Analysis Post Dissolution” value ([3]; listed as L-malate Pattern 1) was “Additional peaks observed”, the GVS mass increase [2] was 0.22% and the “XRPD post GVS analysis” value [2] was “no observed change”. For the same molecule, the GVS hygroscopicity ([2]; listed as Compound 3 Pattern 1) was “slightly hygroscopic” and the GVS hygroscopicity ([2]; listed as L-malate) was “reduced hygroscopicity”.
